Laboratory results: US8440830B2, “Tetrahydro-fused pyridines as histone deacetylase inhibitors” (4SC AG, priority 2007, dated 2013)
Read-outs that look alike come from different tables or passages of the source.

What was measured:
A549 NSCLC cells [1] = assay: Cell cycle analysis by flow cytometry; assay type: cell-based, human; conditions: A549, 24 h treatment
Experimental: A549 NSCLC cells (ATTC CCL-185) are cultivated in DMEM with high glucose (supplemented with 10% FBS) at 5% CO2 and 37° C. in a humidified atmosphere under standard cell culture conditions. 24 h before compound treatment, cells are seeded at 5×10^4 cells/ml (=5×10^5 cells/10 cm cell culture dish) to allow logarithmic proliferation during the experiment. After 24 h, cells were treated with test compound or 0.5 vol % DMSO as a control. After 24 h and 48 h treatment, the culture medium is collected and detached, floating cells are collected by short centrifugation (5 min at 1200 rpm). Attached cells are washed once with 5 ml PBS, detached by treatment with 3 ml trypsin/EDTA solution (short incubation for 3-5 min) and—together with detached, floating cells—transferred into 15 ml Falcon tubes. The cell culture dish is washed with 10 ml DMEM to collect all remaining cells. After centrifugation for 5 min at 1200 rpm at room temperature, the supernatant is discarded and the cell pellet washed twice with 10 ml PBS. The supernatant is discarded, the cells resuspended in 4 ml ice-cold fixation solution (70 vol % ethanol, 30 vol % H2O; stored at −20° C.) and stored at −20° C. overnight. Next, 10 ml PBS (4° C.) is added to the cells, before centrifugation for 5 min at 1200 rpm (4° C.). The supernatant is discarded, the cell pellet washed once with 10 ml PBS (4° C.) and the cell pellet finally resuspended in about 1 ml staining solution (10 μg/ml RNAse A, 10 μg/ml propidiumiodide in PBS, final volume dependent on cell number). After incubation for 30 min at room temperature in the dark, cells are stored on ice and analyzed using the Becton Dickinson FACS Canto device. Analysis is done at an excitation of λ=488 nm with emission set as λ=600 nm.
Data analysis: Cells are analyzed according to size, granularity and propidiumiodide intensity. Size and granularity of cells are determined by measurement of forward scatter (FSC) and side scatter (SSC) of the λ=488 nm excitation light, respectively. To discriminate cells with 4N DNA content from cell doublets (two attached cells with 2N DNA content each), the ratio between the area under the propidiumiodide peak (PE-A) and the height of the propidiumiodide peak (PE-H) for each cell is determined. Cell doublets need more time to pass through the laser beam, which causes a broadening of the propidiumiodide peak and an increase of the ratio PE-A/PE-H. Using this analysis, cells in 4N and cell doublets appear as distinct clouds in a scatter plot and are excluded from the analysis. Thus, the area under the propidiumiodide peak at λ=600 nm (PE-A) is a measure for the DNA content of the cells. PE-A is blotted against the measured cell number in a histogram in order to determine the percentage of analyzed cells in an individual stage of the cell cycle.

A549 NSCLC cells [2] = assay: Cellular cytotoxicity assay (Alamar Blue), A549; assay type: cell-based; conditions: Homo sapiens, 72 h, upper end given as ≧100, read-out: IC50 (μM), cytotoxicity towards A549 NSCLC cells
Summary of the method: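 Resazurin-to-resorufin fluorescence (ex 544, em 590 nm, after 4 h) gave viability as % of untreated cells following 72 h compound exposure at 37 °C. Compounds were added in semi-logarithmic dilutions 24 h post-seeding, quadruplicate wells; IC50 fitted by non-linear regression of concentration-effect curves.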

[3] = tested on: RKO colon carcinoma cells with conditional p21^waf1 expression; assay: Cell cycle dependent cytotoxicity, RKO exop21 cell system; assay type: cell-based; conditions: Homo sapiens, 72 h
Experimental: The anti-proliferative activity of the histone deacetylase inhibitory compounds as described herein, is evaluated using the following cell lines: HeLa and HeLa-KB (cervical carcinoma), H460 (non small cell lung cancer), A549 (non-small cell lung cancer), MCF7 (breast carcinoma), MCF10A (normal, non tumorigenic breast epithelial), MDA-MB468 (breast carcinoma), MDA-MB435 (breast carcinoma), MDA-MB231 (breast carcinoma), SKBR-3 (breast carcinoma), SKOV-3 (ovarial carcinoma), A-2780 (ovarial carcinoma), RKO (colon carcinoma), HCT-15 (colon carcinoma), HCT-116 (colon carcinoma), PC3 (prostate carcinoma), BPH1 (benign prostate hyperplasia), AsPC1 (pancreatic carcinoma), Ca127 (tongue carcinoma), A-431 (vulva carcinoma), Hec1A (endometrial carcinoma), Saos-2 (osteosarcoma), U87MG (glioblastoma), WM266-4 (melanoma), K562 (chronic myeloid leukemia), EOL1 (acute hypereosinophilic myeloid leukemia), CCRF-CEM and CCRF-CEM VCR1000 (acute lymphoblastic leukemia sensitive and resistant towards Vincristine). For quantification of cellular proliferation/living cells the Alamar Blue (Resazurin) cell viability assay is applied (O'Brien et al. Eur J Biochem 267, 5421-5426, 2000). In this assay Resazurin is reduced to the fluorescent resorufine by cellular dehydrogenase activity, correlating with viable, proliferating cells. The examples are dissolved as 20 mM solutions in dimethylsulfoxide (DMSO) and subsequently diluted in semi-logarithmic steps. Cell lines are seeded at respective density into 96 well flat bottom plates in a volume of 200 μl per well. 24 h after seeding 1 μl each of the compound dilutions are added into each well of the 96 well plate. Each compound dilution is tested as quadruplicates. Wells containing untreated control cells are filled with 200 μl DMEM medium containing 0.5% v:v DMSO. The cells are then incubated with the compounds for 72 h at 37° C. in a humidified atmosphere containing 5% carbon dioxide. To determine the viability of the cells, 20 μl of a Resazurin solution (Sigma; 90 mg/l) are added. After 4 h incubation at 37° C. the fluorescence is measured at an extinction of λ=544 nm and an emission of λ=590 nm. For the calculation of the cell viability the emission value from untreated cells is set as 100% viability and the emission rates of treated cells are set in relation to the values of untreated cells. Viabilities are expressed as % values. The corresponding IC50 values of the compounds for cytotoxic activity are determined from the concentration-effect curves by means of non-linear regression.
For determination of cell-cycle dependent cytotoxicity, the RKO exop21 cell system is applied (Schmidt et al. Oncogene 19: 2423-2429, 2000). Briefly, RKO cells with/without p21^waf1 expression (2×10^4 cells/well induced, 6×10^3 cells/well not induced) are treated with the compounds for 72 h and metabolic activity quantified as described before. The expression of p21^waf1 was induced by treatment with Pronasterone A, causing a complete proliferation arrest of RKO cells in the G1 and G2 phases of the cell division cycle.

[4] = RKO arrested, p21^waf1 expressed, read-out: RKO arrested (p21^waf1 expressed) IC50
[5] = RKO proliferating, p21^waf1 not induced, read-out: RKO proliferating IC50

Structure (SMILES): Nc1ccccc1NC(=O)c1nc2c(s1)CN(C(=O)Nc1ccc(-c3ccccc3)cc1)CC2 [Example 1, N^2-(2-aminophenyl)-N5-biphenyl-4-yl-6,7-dihydro[1,3]thiazolo[5,4-c]pyridine-2,5(4H)-dicarboxamide]
- concentration inducing arrest in G1, depletion of cells in the S-phase and reduction of cells in the G2/M-phase (A549 NSCLC cells [1]): around 3 μM
- IC50 (A549 NSCLC cells [2]): ≥ 0.2 µM
- IC50 [3, 4]: 1100 to 4900 nM
- IC50 [3, 5]: 1100 to 4000 nM

Structure (SMILES): CN(C)c1ccc(NC(=O)N2CCc3nc(C(=O)Nc4ccccc4N)sc3C2)cc1 [Example 2, N^2-(2-aminophenyl)-N5-[4-(dimethylamino)phenyl]-6,7-dihydro[1,3]thiazolo[5,4-c]pyridine-2,5(4H)-dicarboxamide]
- concentration inducing arrest in G1, depletion of cells in the S-phase and reduction of cells in the G2/M-phase (A549 NSCLC cells [1]): around 3 μM
- IC50 (A549 NSCLC cells [2]): ≥ 0.2 µM
- IC50 [3, 4]: 1100 to 4900 nM
- IC50 [3, 5]: 1100 to 4000 nM

Structure (SMILES): COc1ccc(NC(=O)N2CCc3nc(C(=O)Nc4ccccc4N)sc3C2)cc1 [Example 3, N^2-(2-aminophenyl)-N5-(4-methoxyphenyl)-6,7-dihydro[1,3]thiazolo[5,4-c]pyridine-2,5(4H)-dicarboxamide]
- concentration inducing arrest in G1, depletion of cells in the S-phase and reduction of cells in the G2/M-phase (A549 NSCLC cells [1]): around 3 μM
- IC50 (A549 NSCLC cells [2]): ≥ 0.2 µM
- IC50 [3, 4]: 1100 to 4900 nM
- IC50 [3, 5]: 1100 to 4000 nM

Structure (SMILES): Nc1ccccc1NC(=O)c1nc2c(s1)CN(C(=O)Nc1cnc3ccccc3c1)CC2 [Example 12, N^2-(2-aminophenyl)-N5-quinolin-3-yl-6,7-dihydro[1,3]thiazolo[5,4-c]pyridine-2,5(4H)-dicarboxamide]
- concentration inducing arrest in G1, depletion of cells in the S-phase and reduction of cells in the G2/M-phase (A549 NSCLC cells [1]): around 3 μM
- IC50 (A549 NSCLC cells [2]): ≥ 0.2 µM
- IC50 [3, 4]: 1100 to 4900 nM
- IC50 [3, 5]: 1100 to 4000 nM
